# Test results reported in PubChem BioAssay AID248 (DTP/NCI, 2004).
# Where “and” joins values, the source holds several entries; their conditions need not be identical. Equal entries are not always repeated. Inconclusive results and toxic doses are left out.
# Test system: L1210 leukemia ip in BDF1 mice, survival T/C
# Assay: NCI In Vivo Anticancer Drug Screen. Data for tumor model L1210 Leukemia (intraperitoneal) in B6D2F1 (BDF1) mice
# Settings: endpoint: mean survival time, higher = longer survival
# Summary of the method: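 Each compound was tested against a transplantable tumor grown in mice. The endpoint was survival, with treated animals benchmarked against vehicle controls as a simple ratio.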
# [1] = dose: 2.0 mg/kg/injection, schedule: Q01DX Z (ip), vehicle: carboxymethylcellulose (CMC)
# [2] = dose: 12.5 mg/kg/injection, schedule: Q01DX009 (ip), vehicle: saline
# [3] = dose: 100.0 mg/kg/injection, schedule: Q01DX009 (ip), vehicle: saline
# [4] = dose: 100.0 mg/kg/injection, schedule: Q04DX002 (ip), vehicle: saline
# [5] = dose: 100.0 mg/kg/injection, schedule: Q04DX002 (ip), vehicle: saline with Tween-80
# [6] = dose: 200.0 mg/kg/injection, schedule: Q04DX002 (ip), vehicle: saline with Tween-80
# [7] = dose: 100.0 mg/kg/injection, schedule: Q01DX009 (ip), vehicle: Klucel (hydroxypropylcellulose) (HPC)
# [8] = dose: 200.0 mg/kg/injection, schedule: Q01DX009 (ip), vehicle: Klucel (hydroxypropylcellulose) (HPC)
# [9] = dose: 400.0 mg/kg/injection, schedule: Q01DX009 (ip), vehicle: Klucel (hydroxypropylcellulose) (HPC)
# [10] = dose: 100.0 mg/kg/injection, schedule: Q01DX001 (ip), vehicle: saline
# [11] = dose: 200.0 mg/kg/injection, schedule: Q01DX001 (ip), vehicle: saline
# [12] = dose: 6.25 mg/kg/injection, schedule: Q01DX009 (ip), vehicle: saline
# [13] = dose: 25.0 mg/kg/injection, schedule: Q04DX003 (ip), vehicle: Klucel (hydroxypropylcellulose) (HPC)
# [14] = dose: 50.0 mg/kg/injection, schedule: Q04DX003 (ip), vehicle: Klucel (hydroxypropylcellulose) (HPC)
# [15] = dose: 100.0 mg/kg/injection, schedule: Q01DX001 (ip), vehicle: Klucel (hydroxypropylcellulose) (HPC)
# [16] = dose: 100.0 mg/kg/injection, schedule: Q04DX003 (ip), vehicle: Klucel (hydroxypropylcellulose) (HPC)
# [17] = dose: 200.0 mg/kg/injection, schedule: Q01DX001 (ip), vehicle: Klucel (hydroxypropylcellulose) (HPC)
# [18] = dose: 200.0 mg/kg/injection, schedule: Q04DX003 (ip), vehicle: Klucel (hydroxypropylcellulose) (HPC)
# [19] = dose: 400.0 mg/kg/injection, schedule: Q01DX001 (ip), vehicle: Klucel (hydroxypropylcellulose) (HPC)
# [20] = dose: 400.0 mg/kg/injection, schedule: Q04DX003 (ip), vehicle: Klucel (hydroxypropylcellulose) (HPC)
# [21] = dose: 25.0 mg/kg/injection, schedule: Q01DX009 (ip), vehicle: Klucel (hydroxypropylcellulose) (HPC)
# [22] = dose: 50.0 mg/kg/injection, schedule: Q01DX009 (ip), vehicle: Klucel (hydroxypropylcellulose) (HPC)
# [23] = dose: 3.12 mg/kg/injection, schedule: Q01DX009 (ip), vehicle: saline
compound,measurement,setting,value
O=NN(CCCl)C(=O)Nc1ccccc1,T/C,[1],114 % of control
same,T/C,"dose: 4.0 mg/kg/injection, schedule: Q01DX Z (ip), vehicle: carboxymethylcellulose (CMC)",169 % of control
same,T/C,"dose: 6.0 mg/kg/injection, schedule: Q01DX Z (ip), vehicle: carboxymethylcellulose (CMC)",160 % of control and 213 % of control
same,T/C,"dose: 10.0 mg/kg/injection, schedule: Q01DX Z (ip), vehicle: carboxymethylcellulose (CMC)",102 % of control
same,T/C,"dose: 14.0 mg/kg/injection, schedule: Q01DX Z (ip), vehicle: carboxymethylcellulose (CMC)",102 % of control
same,T/C,"dose: 18.0 mg/kg/injection, schedule: Q01DX001 (ip), vehicle: carboxymethylcellulose (CMC)",123 % of control
same,T/C,"dose: 18.0 mg/kg/injection, schedule: Q01DX Z (ip), vehicle: carboxymethylcellulose (CMC)",174 % of control
same,T/C,"dose: 20.0 mg/kg/injection, schedule: Q01DX Z (ip), vehicle: carboxymethylcellulose (CMC)",166 % of control
same,T/C,"dose: 25.0 mg/kg/injection, schedule: Q01DX Z (ip), vehicle: carboxymethylcellulose (CMC)",107 % of control and 89 % of control
same,T/C,"dose: 72.0 mg/kg/injection, schedule: Q01DX001 (ip), vehicle: carboxymethylcellulose (CMC)",114 % of control
Nc1nc(=S)c2ncn(CN3CCCCC3)c2[nH]1,T/C,"dose: 1.3 mg/kg/injection, schedule: Q01DX Z (ip), vehicle: carboxymethylcellulose (CMC)",112 % of control
same,T/C,[1],123 % of control
same,T/C,"dose: 3.0 mg/kg/injection, schedule: Q01DX Z (ip), vehicle: carboxymethylcellulose (CMC)",154 % of control
same,T/C,"dose: 3.0 mg/kg/injection, schedule: Q01DX Z (ip), vehicle: saline",155 % of control
same,T/C,"dose: 4.5 mg/kg/injection, schedule: Q01DX Z (ip), vehicle: carboxymethylcellulose (CMC)",151 % of control
same,T/C,"dose: 4.5 mg/kg/injection, schedule: Q01DX Z (ip), vehicle: saline",166 % of control
same,T/C,"dose: 7.0 mg/kg/injection, schedule: Q01DX Z (ip), vehicle: saline",156 % of control
same,T/C,"dose: 10.0 mg/kg/injection, schedule: Q01DX Z (ip), vehicle: saline",156 % of control
O=C(CCN1CCCCC1)c1cc(Cl)ccc1Cl,T/C,[2],93 % of control
same,T/C,"dose: 25.0 mg/kg/injection, schedule: Q01DX009 (ip), vehicle: saline",97 % of control and 98 % of control
same,T/C,"dose: 25.0 mg/kg/injection, schedule: Q04DX002 (ip), vehicle: saline",103 % of control
same,T/C,"dose: 50.0 mg/kg/injection, schedule: Q01DX009 (ip), vehicle: saline",93 % of control
same,T/C,"dose: 50.0 mg/kg/injection, schedule: Q04DX002 (ip), vehicle: saline",98 % of control
same,T/C,[3],91 % of control
same,T/C,[4],100 % of control and 88 % of control
O=C1OC2C(Br)CC(Br)CC2C=C1c1ccc([N+](=O)[O-])cc1 (stereo not given),T/C,[5],90 % of control
same,T/C,[6],90 % of control
same,T/C,"dose: 400.0 mg/kg/injection, schedule: Q04DX002 (ip), vehicle: saline with Tween-80",93 % of control
O=c1c2ccccc2nc(-c2ccccc2)n1/N=C/c1ccco1,T/C,[7],93 % of control
same,T/C,[8],94 % of control
same,T/C,[9],96 % of control
Cc1ncc(CO)c2c1OC1=CCCCC1=C2,T/C,[5],95 % of control
same,T/C,[6],92 % of control
C[N+](C)(C)N=C1CCCCC1,T/C,[10],104 % of control
same,T/C,[11],104 % of control
COc1ccc(C2N(C=O)CC34CC(=O)C=CC23C4)cc1O (stereo not given),T/C,"dose: 100.0 mg/kg/injection, schedule: Q04DX003 (ip), vehicle: saline",95 % of control
same,T/C,"dose: 200.0 mg/kg/injection, schedule: Q04DX003 (ip), vehicle: saline",93 % of control
same,T/C,"dose: 400.0 mg/kg/injection, schedule: Q04DX003 (ip), vehicle: saline",95 % of control
NC(=S)NNc1ccccn1,T/C,"dose: 3.13 mg/kg/injection, schedule: Q01DX009 (ip), vehicle: saline",108 % of control
same,T/C,[12],96 % of control
same,T/C,[2],101 % of control
same,T/C,[4],94 % of control
CCOC(=O)CCc1c(C(=O)O)[nH]c(C(=O)OCC)c1C,T/C,[13],102 % of control
same,T/C,[14],107 % of control
same,T/C,[15],98 % of control
same,T/C,[16],102 % of control
same,T/C,[17],97 % of control
same,T/C,[18],93 % of control
same,T/C,[19],97 % of control
same,T/C,[20],101 % of control
CSc1nnn(C(C)(C)C)n1,T/C,"dose: 100.0 mg/kg/injection, schedule: Q01DX001 (ip), vehicle: acetone",100 % of control
same,T/C,"dose: 200.0 mg/kg/injection, schedule: Q01DX001 (ip), vehicle: acetone",91 % of control
CCCCOP(=O)(CSCC)OCCCC,T/C,[7],98 % of control
same,T/C,[8],90 % of control
same,T/C,[9],93 % of control
BrCC1(c2ccccc2)OCCO1,T/C,[15],100 % of control
same,T/C,[7],89 % of control
same,T/C,[17],92 % of control
same,T/C,[8],89 % of control
same,T/C,[19],98 % of control
S=C(SP(SC(=S)N1CCCCC1)SC(=S)N1CCCCC1)N1CCCCC1,T/C,[4],95 % of control
same,T/C,"dose: 200.0 mg/kg/injection, schedule: Q04DX002 (ip), vehicle: saline",89 % of control
same,T/C,"dose: 400.0 mg/kg/injection, schedule: Q04DX002 (ip), vehicle: saline",95 % of control
CCOC(=O)Nc1cc(Nc2ccc(Cl)cc2)c2nc(-c3ccc(Cl)cc3)c(-c3ccc(Cl)cc3)nc2n1,T/C,[13],104 % of control
same,T/C,[14],101 % of control
same,T/C,[16],98 % of control
O=S1(=O)C2C=CCC1C(O)CC2 (stereo not given),T/C,[3],101 % of control
same,T/C,"dose: 200.0 mg/kg/injection, schedule: Q01DX009 (ip), vehicle: saline",99 % of control
same,T/C,"dose: 400.0 mg/kg/injection, schedule: Q01DX009 (ip), vehicle: saline",101 % of control
CCO/C([O-])=C/[P+](c1ccccc1)(c1ccccc1)c1ccccc1,T/C,"dose: 12.5 mg/kg/injection, schedule: Q01DX009 (ip), vehicle: Klucel (hydroxypropylcellulose) (HPC)",103 % of control
same,T/C,[21],106 % of control
same,T/C,[13],103 % of control
same,T/C,[22],103 % of control
same,T/C,[14],103 % of control
same,T/C,[16],96 % of control
CCOC(=O)CSc1nc2ccccc2[nH]1,T/C,"dose: 100.0 mg/kg/injection, schedule: Q01DX001 (ip), vehicle: saline with Tween-80",97 % of control
same,T/C,"dose: 200.0 mg/kg/injection, schedule: Q01DX001 (ip), vehicle: saline with Tween-80",98 % of control
same,T/C,"dose: 400.0 mg/kg/injection, schedule: Q01DX001 (ip), vehicle: saline with Tween-80",93 % of control
c1ccc(-n2ncnn2)cc1,T/C,[10],98 % of control
same,T/C,[11],95 % of control
same,T/C,"dose: 400.0 mg/kg/injection, schedule: Q01DX001 (ip), vehicle: saline",90 % of control
COC(=O)[CH](C[N+](=O)[O-])[Hg][Cl] (stereo not given),T/C,[23],94 % of control
same,T/C,[12],94 % of control
O=S(=O)(C1CCCCC1)C1CCCC1,T/C,[7],97 % of control
same,T/C,[16],102 % of control
same,T/C,[8],100 % of control
same,T/C,[18],105 % of control
same,T/C,[9],107 % of control
same,T/C,[20],107 % of control
C=C1C2CCC3C4(C)CC(OC5OC(CO)C(OS(=O)(=O)O)C(OS(=O)(=O)O)C5OC(=O)CCCC)CC(C(=O)O)C4CCC3(C2)C1O (stereo not given),T/C,[23],104 % of control
same,T/C,[12],92 % of control
same,T/C,"dose: 100.0 mg/kg/injection, schedule: Q04DX003 (ip), vehicle: saline with Tween-80",98 % of control
same,T/C,"dose: 200.0 mg/kg/injection, schedule: Q04DX003 (ip), vehicle: saline with Tween-80",106 % of control
Clc1c(CI)ccc(CI)c1Cl,T/C,"dose: 6.25 mg/kg/injection, schedule: Q01DX009 (ip), vehicle: saline with Tween-80",100 % of control
same,T/C,"dose: 12.5 mg/kg/injection, schedule: Q01DX009 (ip), vehicle: saline with Tween-80",92 % of control
same,T/C,[21],93 % of control
same,T/C,"dose: 25.0 mg/kg/injection, schedule: Q01DX009 (ip), vehicle: saline with Tween-80",92 % of control
same,T/C,[22],108 % of control
same,T/C,"dose: 50.0 mg/kg/injection, schedule: Q01DX009 (ip), vehicle: saline with Tween-80",89 % of control
same,T/C,[16],89 % of control
